System: Menschlicher Saccus endolymphaticus
Experiment: Light-microscopic autoradiography of 125I-arginine-vasopressin binding on frozen tissue sections
Design: species or system menschlich
Conditions: overnight at 4 °C; unspecific binding checked with 10 µM unlabelled Arginin-Vasopressin
Experimental: Menschlicher Saccus endolymphaticus wurde von sechs Autopsien und zwei operierten Patienten mit Einwilligung der Verwandten bzw. der Patienten erhalten. Gefrorene Schnitte (20 µm) wurden auf einem Kryostaten bei -16 °C geschnitten, auf Gelatine-beschichtete Plättchen aufgebracht und über Nacht unter Vakuum bei 4 °C gelagert. […] Die radiomarkierten Schnitte wurden mit NTB-2 Nuklearemulsion (Eastman Kodak) beschichtet und für die lichtmikroskopische Autoradiographie präpariert. Die beschichteten Plättchen wurden in der Dunkelheit bei 4 °C für drei bis acht Tage gelagert. Nach Entwickeln und Fixieren wurden die Plättchen mit Haematoxylin/Eosin gefärbt.

Substance: ^125I-Arginin-Vasopressin [radioaktivem Vasopressin]
- Bindung im Epithel des endolymphatischen Sacks: spezifische Bindung

— EP1028725B1, “USE OF VASOPRESSIN ANTAGONISTS FOR TREATING DISTURBANCES OR ILLNESSES OF THE INNER EAR” (Otogene Aktiengesellschaft, priority 1997, dated 2004)
